From patent US7524505B2, “Compositions and methods for dual therapies of hair graying and balding in follicular delivery systems” (Schweitzer Biotech Company Ltd., priority 2005, dated 2009)

System: hair follicle organ
Assay: Hair follicle organ cultured in vitro, length of re-grown hair
Type: cell-based, mice (F1 generation of C3H mated with BALB/C)
Conditions: hair follicles cultured 12 days in the formula of amino acids and vitamins; length measured at Day 12; FIG. 7
Text: At the age of 8 weeks, the F1 generation of C3H mated with BALB/C supplies the hair follicle material. By plucking the whiskers by depilating forceps, an anagen phase of the hair follicle can be induced. After three days of whisker plucking, the mice were killed and the hair follicle samples were harvested. Each selected hair follicle was then carefully isolated from the subcutaneous fat and the connective tissue surrounding the capsule was removed under a stereo-dissection microscope with fine forceps. We picked up the intact hair follicles with average size for the next step of culture, and which is in the early anagen stage, which is determined by the hair follicle conformation. Before culture, the hair fibre was first cut out at the surrounding line of the hair follicle to make the length measurement of hair growth much more easily in the future (FIG. 7). […]
Ten hair follicles were cultured in each treatment. […] The length of the hair growth beginning from the cutting site was measured at Day 12. […]
Hair follicle was observed by the Inverted microscope (Lieca DM, IL) and captured with the image by CCD connecting with a computer. The hair length was analyzed with the computer software: Northern Eclipse image system. The data of hair length were analyzed with the Duncan's new multiple range test by one way analysis of variance (ANOVA) using the SigmaStat program (2002).

In the case of “HSCF-II: recombinant fusion of human SCF, linking peptide and IGF-I; 253 amino acids, SEQ ID NO:6”, the “effect on hair re-growth (hair length)” value was “even better than each of SCF and IGF-I”.
